Laboratory results from US20210084905A1, “METHODS AND COMPOSITIONS FOR AQUACULTURE” (priority 2018, published 2021).

Columns and labels:
[1] = system: V. cholerae O1 strain, H1; assay: sensitivity to the A603 phenazine; format: cell-based
From the text: GO annotations were not assigned to these genes thus they were not included in the hypergeometric and GSEA analyses. One gene (TMChrII_2378) encodes a protein with high structural conservation to heme monooxgenase and the other (TMChrI_2040) a dioxygenase that closely resembles a bleomycin resistance proteins. A second dioxygenase (TMChr1_3001) is also among the top induced genes. This family of dioxygenase proteins includes those that can bind and in some cases hydrolyze planar and aromatic antibacterial molecules including phenazines. Though amino acid sequence similarity is poor, the predicted structure of TMChr1_2040 is very similar to EphR, a protein that loosely binds phenazine in producer strains and confers resistance by binding molecules until export.

[2] = system: bacterial strains seeded into an agar soft overlay; assay: secretion assay, soft agar overlay (halo of inhibition); format: cell-based; conditions: secreted antibacterial compound
Method: Many other phenazine molecules including pyocyanin are shown to elicit antibacterial activity often by causing oxidative stress. To test whether the genes hit in the transposon insertion screen are required, two separate genes with insertions (orf6 & orf8) in the region of the operon were precisely deleted in A603 ΔvipA.
The spectrum of inhibition for the putative phenazine molecule was tested by seeding agar with a diverse set of laboratory and environmental strains using A603 ΔvipA and an isogenic double knockout A603 ΔvipA Δorf8 to score inhibition by appearance of a halo around A603 ΔvipA.

## c1ccc2nc3ccccc3nc2c1 [A603 phenazine]
[1]
  sensitivity of V. cholerae O1 strain H1: very sensitive
[2]
  growth inhibition (halo) in soft agar overlay: broad spectrum antibacterial activity
